Data as given in PubChem BioAssay AID2060613 (Molecular Pharmacology Branch, DTP, NCI, 2025).

Test system: 233499-124-R-J3-PDC complex spheroid viability
Experiment: Anticancer human tumor 233499-124-R-J3-PDC patient-derived colon adenocarcinoma cell line growth inhibition [CLK]
Settings: for IC50: curve of first compound; for viability, T/C: stronger effect = lower value
Summary of the method: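 Patient-derived tumor cells grown as complex spheroids with HUVEC endothelial cells and mesenchymal stem cells, treated with drug combinations. Concentrations descend in half-log steps from near clinical Cmax, or from 10 microM if Cmax unknown.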

[1] = second compound 0.0316 µM, first compound 0.0316 µM
[2] = second compound 0.0316 µM, first compound 0.1 µM
[3] = second compound 0.0316 µM, first compound 0.316 µM
[4] = second compound 0.0316 µM, first compound 1 µM
[5] = second compound 0.0316 µM, first compound 3.16 µM
[6] = second compound 0.0316 µM, first compound 10 µM
[7] = second compound 0.1 µM, first compound 0.0316 µM
[8] = second compound 0.1 µM, first compound 0.1 µM
[9] = second compound 0.1 µM, first compound 0.316 µM
[10] = second compound 0.1 µM, first compound 1 µM
[11] = second compound 0.1 µM, first compound 3.16 µM
[12] = second compound 0.1 µM, first compound 10 µM
[13] = second compound 0.316 µM, first compound 0.0316 µM
[14] = second compound 0.316 µM, first compound 0.1 µM
[15] = second compound 0.316 µM, first compound 0.316 µM
[16] = second compound 0.316 µM, first compound 1 µM
[17] = second compound 0.316 µM, first compound 3.16 µM
[18] = second compound 0.316 µM, first compound 10 µM
[19] = second compound 1 µM, first compound 0.0316 µM
[20] = second compound 1 µM, first compound 0.1 µM
[21] = second compound 1 µM, first compound 0.316 µM
[22] = second compound 1 µM, first compound 1 µM
[23] = second compound 1 µM, first compound 3.16 µM
[24] = second compound 1 µM, first compound 10 µM
[25] = second compound 3.16 µM, first compound 0.0316 µM
[26] = second compound 3.16 µM, first compound 0.1 µM
[27] = second compound 3.16 µM, first compound 0.316 µM
[28] = second compound 3.16 µM, first compound 1 µM
[29] = second compound 3.16 µM, first compound 3.16 µM
[30] = second compound 3.16 µM, first compound 10 µM
[31] = second compound 10 µM, first compound 0.0316 µM
[32] = second compound 10 µM, first compound 0.1 µM
[33] = second compound 10 µM, first compound 0.316 µM
[34] = second compound 10 µM, first compound 1 µM
[35] = second compound 10 µM, first compound 3.16 µM
[36] = second compound 10 µM, first compound 10 µM
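Further: spheroids exposed to the drug combinations for seven days.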
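Wherever viability, T/C is given: percent viability relative to DMSO vehicle control wells taken as 100%.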

`Nc1ccn(C2OC(CO)C(O)C2(F)F)c(=O)n1` (centres undefined) + CN1CCN(c2cc(C(=O)Nc3cc4cc(-c5cnn(C)c5)ccc4cn3)ccn2)CC1 was tested, and the IC50 (second compound 0.0316 µM) was 313 nM, the IC50 (second compound 0.1 µM) was 217 nM and the IC50 (second compound 0.316 µM) was 168 nM. The IC50 (second compound 1 µM) was under 31.6 nM, the IC50 (second compound 3.16 µM) was under 31.6 nM and the IC50 (second compound 10 µM) was under 31.6 nM. It also gave a viability, T/C [1] of 80%, a viability, T/C [2] of 95.4% and a viability, T/C [3] of 49.6%. For the same compound, the viability, T/C [4] was 34.2%, the viability, T/C [5] was 37% and the viability, T/C [6] was 27.2%. It also gave a viability, T/C [7] of 101%, a viability, T/C [8] of 92.1% and a viability, T/C [9] of 29.6%. The viability, T/C [10] was 19.2%, the viability, T/C [11] was 23.2% and the viability, T/C [12] was 21.4%. The viability, T/C [13] was 101%, the viability, T/C [14] was 71% and the viability, T/C [15] was 24.7%. For the same compound, the viability, T/C [16] was 7.57%, the viability, T/C [17] was 12.1% and the viability, T/C [18] was 5.63%. For the same compound, the viability, T/C [19] was 1.31%, the viability, T/C [20] was 0.86% and the viability, T/C [21] was 0.41%. The viability, T/C [22] was 1.47%, the viability, T/C [23] was 0.37% and the viability, T/C [24] was 0.46%. For the same compound, the viability, T/C [25] was 0.7%, the viability, T/C [26] was 0.69% and the viability, T/C [27] was 0.53%. For the same compound, the viability, T/C [28] was 0.46%, the viability, T/C [29] was 0.48% and the viability, T/C [30] was 0.62%. The viability, T/C [31] was 0.45%, the viability, T/C [32] was 0.5% and the viability, T/C [33] was 0.68%. The viability, T/C [34] was 0.58%, the viability, T/C [35] was 0.44% and the viability, T/C [36] was 0.38%.
With `O=C(c1cc(Cc2n[nH]c(=O)c3ccccc23)ccc1F)N1CCN(C(=O)C2CC2)CC1` + CN1CCN(c2cc(C(=O)Nc3cc4cc(-c5cnn(C)c5)ccc4cn3)ccn2)CC1 the IC50 (second compound 0.0316 µM) was over 10000 nM, the IC50 (second compound 0.1 µM) was over 10000 nM and the IC50 (second compound 0.316 µM) was over 10000 nM. For the same compound, the IC50 (second compound 1 µM) was under 31.6 nM, the IC50 (second compound 3.16 µM) was under 31.6 nM and the IC50 (second compound 10 µM) was under 31.6 nM. It also gave a viability, T/C [1] of 79.9%, a viability, T/C [2] of 98.1% and a viability, T/C [3] of 96.8%. The viability, T/C [4] was 108%, the viability, T/C [5] was 99.4% and the viability, T/C [6] was 93.2%. For the same compound, the viability, T/C [7] was 98.6%, the viability, T/C [8] was 105% and the viability, T/C [9] was 103%. It also gave a viability, T/C [10] of 109%, a viability, T/C [11] of 110% and a viability, T/C [12] of 82.4%. For the same compound, the viability, T/C [13] was 103%, the viability, T/C [14] was 99.4% and the viability, T/C [15] was 103%. For the same compound, the viability, T/C [16] was 93.8%, the viability, T/C [17] was 96.8% and the viability, T/C [18] was 87.1%. For the same compound, the viability, T/C [19] was 3.57%, the viability, T/C [20] was 2.51% and the viability, T/C [21] was 2.71%. It also gave a viability, T/C [22] of 16.4%, a viability, T/C [23] of 3.61% and a viability, T/C [24] of 1.27%. The viability, T/C [25] was 0.91%, the viability, T/C [26] was 0.94% and the viability, T/C [27] was 0.75%. The viability, T/C [28] was 0.71%, the viability, T/C [29] was 0.8% and the viability, T/C [30] was 1.09%. For the same compound, the viability, T/C [31] was 0.64%, the viability, T/C [32] was 0.56% and the viability, T/C [33] was 0.6%. It also gave a viability, T/C [34] of 4.25%, a viability, T/C [35] of 0.89% and a viability, T/C [36] of 1.84%.
